The numbers were not newly measured in US20230189810A1, “AQUEOUS COMPOSITION OF DITHI[…]” (priority 2020, published 2023), which cites them from elsewhere.

For this data set the following is noted: water, 20° C.

As for mancozeb, the solubility result is on record as “about 6.2 mg per liter”.
